Data from the NIST ThermoML archive (doi:10.1021/acs.jced.9b00441).
Numbers after ± are expanded uncertainties.

What was measured:
[1] = refractive index (Na D-line) (dimensionless); conditions: 101.33 kPa, Liquid, Standard Abbe refractometry
[2] = Liquid; for mass density: 101.33 kPa, Vibrating tube method; for vapor or sublimation pressure: Closed cell (Static) method

Compound	mass density ([2]; 293.15 K) [kg/m3]	refractive index ([1]; 293.15 K)	mass density ([2]; 298.15 K) [kg/m3]	further results
C1CCCCC1 [cyclohexane]	–	1.423 ± 0.001	775 ± 1	–
FC(F)=C(F)C(F)(F)F [hexafluoropropene]	–	–	–	vapor or sublimation pressure ([2]; 302.94 K): 838 ± 7 kPa; vapor or sublimation pressure ([2]; 312.91 K): 1094 ± 7 kPa; vapor or sublimation pressure ([2]; 322.94 K): 1407 ± 8 kPa; vapor or sublimation pressure ([2]; 332.94 K): 1783 ± 8 kPa; vapor or sublimation pressure ([2]; 342.92 K): 2225 ± 8 kPa
CCCCCC [hexane]	–	–	654 ± 1	refractive index ([1]; 298.15 K): 1.375 ± 0.001
CC1CCCCC1 [methylcyclohexane]	769 ± 1	1.423 ± 0.001	–	–

Second part, led by results:

mass density ([2]; 293.15 K) [kg/m3]	Compound	refractive index ([1]; 293.15 K)	mass density ([2]; 298.15 K) [kg/m3]	further results
1580 ± 2	OCC(F)(F)C(F)(F)C(F)(F)F [2,2,3,3,4,4,4-heptafluorobutanol]	1.264 ± 0.001	–	–
855 ± 1	CC1CCCO1 (stereo not given) [2-methyltetrahydrofuran]	–	–	refractive index ([1]; 294.15 K): 1.405 ± 0.001
